Data as given in patent publication US8741884B2, “Compounds for the treatment of hepatitis C” (priority 2010, dated 2014).

Tested on: HCV pseudoparticles (genotype 1a HCV E1 and E2 envelope, H77C isolate)
Test: microbe, parasite or virus in culture
Type: cell-based
Conditions: Hepatitis C virus, Huh-7, 48 h, HCV pseudoparticles genotype 1a (H77C), Huh7 cells, luciferase 2 days after infection, average of duplicates

CCOC(=O)[C@H]1CN(C(=O)OC(C)(C)C)C[C@H]1NC(=O)c1ccc2cc1OCCCCCCOc1ccc(cc1)CNc1nc(nc(OCC(F)(F)F)n1)N2 [Example 1320]
EC50 (class symbol): 0.1 to 100 nM

COC(=O)CNC(=O)c1ccc2cc1OCCCCCCCCOc1ccc(cc1)CNc1nc(nc(OCC(F)(F)F)n1)N2 [Example 1104]
EC50 (class symbol): 100 to 1000 nM

COC(=O)C(NC(=O)c1ccc2cc1OCCCCCCOc1ccc(cc1)CNc1nc(nc(OCC(F)(F)F)n1)N2)C1CCCN(C(=O)OC(C)(C)C)C1 (stereo not drawn) [Example 1304]
EC50 (class symbol): 0.1 to 100 nM

COC(=O)c1ccc2cc1OCCCCCCOc1cccc(c1)CNc1nc(nc(OCC(F)(F)F)n1)N2 [Example 1803]
EC50 (class symbol): 1000 to 50000 nM

O=C(NC(Cc1ccccc1)C(=O)O)c1ccc2cc1OCCCCCCOc1ccc(cc1)CNc1nc(nc(OCC(F)(F)F)n1)N2 (stereo not drawn) [Example 1405]
EC50 (class symbol): 0.1 to 100 nM

CC(=O)NC[C@H](NC(=O)c1ccc2cc1OCCCCCCOc1ccc(cc1)CNc1nc(nc(OCC(F)(F)F)n1)N2)C(=O)O [Example 1711]
EC50 (class symbol): 0.1 to 100 nM

COC(=O)[C@H](CCN)NC(=O)c1ccc2cc1OCCCCCCOc1ccc(cc1)CNc1nc(nc(OCC(F)(F)F)n1)N2 [Example 1502]
EC50 (class symbol): 0.1 to 100 nM

COC(=O)c1ccc2cc1OCCCCCCOc1ccc(cc1)CNc1nc(nc(OCC(F)(F)F)n1)N2 [Example 1301]
EC50 (class symbol): 100 to 1000 nM

O=C(O)CCCCNC(=O)c1ccc2cc1OCCCCCCOc1ccc(cc1)CNc1nc(nc(OCC(F)(F)F)n1)N2 [Example 1408]
EC50 (class symbol): 0.1 to 100 nM

COC(=O)CC1CCN(C(=O)c2ccc3cc2OCCCCCCCCOc2ccc(cc2)CNc2nc(nc(OCC(F)(F)F)n2)N3)C1 (stereo not drawn) [Example 1103]
EC50 (class symbol): 1000 to 50000 nM

COC(=O)C(NC(=O)c1ccc2cc1OCCOCCOCCOc1ccc(cc1)CNc1nc(nc(OCC(F)(F)F)n1)N2)C1CCCNC1 (stereo not drawn) [Example 1607]
EC50 (class symbol): 0.1 to 100 nM

CC(C)C(=O)N1CCCCOc2cc(ccc2C(=O)NCC2(CN3CCCC3)CC2)Nc2nc(nc(OCC(F)(F)F)n2)NCc2ccc(cc2)OCCC1 [Example 3023]
EC50 (class symbol): 0.1 to 100 nM

CN(C)CC(C)(C)CNC(=O)c1ccc2cc1OCCCC(O)C(O)CCCOc1ccc(cc1)CNc1nc(nc(OCC(F)(F)F)n1)N2 (stereo not drawn) [Example 1022]
EC50 (class symbol): 0.1 to 100 nM

NC(=O)C(Cc1ccccc1)NC(=O)c1ccc2cc1OCCCCCCOc1ccc(cc1)CNc1nc(nc(OCC(F)(F)F)n1)N2 (stereo not drawn) [Example 1319]
EC50 (class symbol): 0.1 to 100 nM

CCOC(=O)N1CCCOc2ccc(cc2)CNc2nc(nc(OCC(F)(F)F)n2)Nc2ccc(C(=O)NCC3(CN4CCCC4)CC3)c(c2)OCCC1 [Example 3005]
EC50 (class symbol): 0.1 to 100 nM

FC(F)(F)COc1nc2nc(n1)NC1(CC1)c1ccc(cc1)OC/C=C/COc1cccc(c1)N2 [Example 2008]
EC50 (class symbol): 0.1 to 100 nM

O=C(NC[C@H](NC(=O)c1ccc2cc1OCCCCCCOc1ccc(cc1)CNc1nc(nc(OCC(F)(F)F)n1)N2)C(=O)O)c1ccccc1 [Example 1562]
EC50 (class symbol): 0.1 to 100 nM
EC50 (numeric value): 28.7 nM
